Measured values: US6451767B1, “Benzylmaltotriosides as inhibitors of smooth muscle cell proliferation” (Wyeth, priority 1998, dated 2002)

Legend:
[1] = system: Porcine Smooth Muscle Cell; test: Cell proliferation using 3H thymidine incorporation; format: cell-based; conditions: for IC50: serum/growth factor stimulated cells, 3H thymidine incorporation, 24-36 h, read-out: Porcine Smooth Muscle Cell Antiproliferation IC50; for inhibition at 500 µM: Sus scrofa, read-out: Porcine Smooth Muscle Cell Antiproliferation, % inhibition
Protocol: Effects of Compounds on Cell Proliferation Using ^3H Thymidine Incorporation
Human and porcine smooth muscle cells were tested in early passage (generally passage 3-7) at sub-confluent conditions. Cultures were grown in 16 mm (24 well) multi-well culture dishes in medium 199 supplemented with 10% fetal bovine serum and 2% antibiotic/antimycotic. At sub-confluence, the cells were placed in a defined serum free medium (AIM-V; Gibco) for 24-48 h prior to initiating the experimental protocol.
Compounds were added to each well at 50 fold dilution (20 μL/well) and the plates were incubated for 24-36 h at 37° C. in 5% CO2. Compounds were initially dissolved in 50% ethanol and serially diluted into media. Compounds were routinely evaluated at concentrations from 1 to 100 μM. As a control, grade II porcine intestinal mucosal heparin (sodium salt) was routinely evaluated in all cell preparations at concentrations from 0.1 to 100 μg/mL.
At the completion of the test procedure, plates were placed on ice, washed three times with ice cold phosphate buffered saline (PBS) and incubated in ice cold 10% trichloroacetic acid (TCA) got 30 min to remove acid soluble proteins. Solution was transferred to scintillation vials containing 0.4 N HCl (500 μL/vial to neutralize NaOH) and each well was rinsed two times with water (500 μL) for a total volume of 2 mL/vial.
Data was obtained, in triplicate, for both control and experimental samples. Control (100%) data was obtained from maximally stimulated cells, as the result of growth factor or serum stimulation. Experimental data was obtained from cells maximally stimulated with growth factor or serum and treated with compound. Data are expressed as an IC50 in Table I below.

melting point [°C] | Compound | IC50 [1] [µM] | inhibition at 500 µM [1] [%]
 | 5-(Deca-O-acetyl-β-D-maltotriosyloxymethyl)-2-chloro-1-nitrobenzene [Example 1] | 1.8 | 
135 to 148 | CC(=O)Nc1cc(COC2OC(CO)C(OC3OC(CO)C(OC4OC(CO)C(O)C(O)C4O)C(O)C3O)C(O)C2O)ccc1Cl [Example 3, N-[5-(β-D-maltotriosyloxymethyl)-2-chloro-phenyl]-acetamide] |  | 10
95 to 134 | Nc1cc(COC2OC(CO)C(OC3OC(CO)C(OC4OC(CO)C(O)C(O)C4O)C(O)C3O)C(O)C2O)ccc1Cl [Example 5, 5-(β-D-maltotriosyloxymethyl)-2-chloro-phenylamine] |  | 25
 | N-[5-(Deca-O-acetyl-β-D-maltotriosyloxymethyl)-2-chloro-phenyl]-acetamide [Example 2] | 22.5 | 
 | N-[5-(Deca-O-sulfo-β-D-maltotriosyloxymethyl)-2-chloro-phenyl]-acetamide decasodium salt [Example 4] | 112 | 
